The results in this text go back to patent US5696151A, “Compounds useful for the inhibition of the replication of HIV-1 and HIV-1 mutants” (priority 1995, dated 1997).

Common to all, as to assay type: cell-based
Data set [1] relates to HIV-1(IIIB). In words: Inhibition of HIV-1 induced syncytium formation in CEM cells, wild type. Conditions: Human immunodeficiency virus 1, IIIB, CCRF-CEM, 96 h, Table 2B, WT = HIV-1(IIIB), day 4, averages of 2 to 3 independent experiments, read-out: Antiviral Activity of Comparative Compounds EC50, WT. From the text:
(§1) CEM cells were obtained from the American Tissue Cell Culture Collection (Rockville, Md.). HIV-1(IIIB) was originally obtained from the culture supernatant of persistently HIV-1-infected H9 cells and was provided by R. C. Gallo and M. Popovic (National Cancer Institute, National Institutes of Health, Bethesda, Md.). […] 67: 5353-5359 (1993); HIV-1/Lys-138 ("Lys-138") was selected for resistance against TSAO-m^3T as described in Balzarini et al, Virology 192: 246-253 (1993) and Balzarini et al, Proc. Nat. Acad. Sci. USA 90: 6952-6956 (1993); HIV-1/181-Cys ("181-Cys") was selected for resistance against pyridinone L-697,661 as described in Balzarini et al, Virology 192: 246-253 (1993); and HIV-1/188-His ("188-His") was selected for resistance against HEPT as described in Balzarini et al, Mol. Pharmocol. 44: 694-701 (1993). 188-His was then further converted to HIV-1/188-Leu "188-Leu") upon further passage in cell culture in the absence of the HEPT.
(§2) CEM cells were suspended at ≈300,000 cells per ml of culture medium and infected with approximately 100 CCID50 (CCID50 being the 50% cell culture infective dose) of HIV-1(IIIB) or one of the HIV-1 RT mutant strains described above. Then 100 μl of the infected cell suspensions was added to 200 μl microtiter plate wells containing 100 μl of appropriate serial (5-fold) dilutions of the test compounds. The inhibitory effect of the test compounds on HIV-1 induced syncytium formation in CEM cells was examined microscopically on day 4 post infection.

The subject of data set [2] is HIV-1/100-Ile. Kind of data set: Inhibition of HIV-1 induced syncytium formation in CEM cells, RT mutant 100-Ile. Conditions: Human immunodeficiency virus 1, CCRF-CEM, 96 h, Table 2B, day 4, averages of 2 to 3 independent experiments, read-out: Antiviral Activity of Comparative Compounds EC50, 100-Ile.
Description: as §1, §2

For data set [3], the system named is HIV-1/106-Ala. In words: Inhibition of HIV-1 induced syncytium formation in CEM cells, RT mutant 106-Ala. Conditions: Human immunodeficiency virus 1, CCRF-CEM, 96 h, Table 2B, day 4, averages of 2 to 3 independent experiments, read-out: Antiviral Activity of Comparative Compounds EC50, 106-Ala.
Description: as §1, §2

In data set [4] the test system is HIV-1/Lys-138. In words: Inhibition of HIV-1 induced syncytium formation in CEM cells, RT mutant 138-Lys. To be noted: Human immunodeficiency virus 1, CCRF-CEM, 96 h, Table 2B, day 4, averages of 2 to 3 independent experiments, read-out: Antiviral Activity of Comparative Compounds EC50, 138-Lys.
Description: as §1, §2

For data set [5], the system named is HIV-1/181-Cys. Kind of data set: Inhibition of HIV-1 induced syncytium formation in CEM cells, RT mutant 181-Cys. To be noted: Human immunodeficiency virus 1, CCRF-CEM, 96 h, Table 2B, day 4, averages of 2 to 3 independent experiments, read-out: Antiviral Activity of Comparative Compounds EC50, 181-Cys.
Description: as §1, §2

Data set [6] is described as follows: in vitro. To be noted: human, cem cells, CC50 (50% cytostatic concentration), Table 2B; CEM cell proliferation; averages of 2 to 3 independent experiments.
Description: as §1
^b 50% cytostatic concentration (i.e., compound concentration require
to inhibit CEM cell proliferation by 50%)

Each structure is given as a SMILES string. Converted amounts (≈) assume the structure as drawn. A value given as a limit tells only on which side of the number the result lay.

For `CCOC(=O)c1cc(NC(=S)c2ccoc2C)ccc1C` [Compound 75], the concentration giving a half-maximal response (EC50) in data set [1] came out at 0.009 µg/mL (≈ 0.0297 µM); in data set [2], 0.9 µg/mL (≈ 2.97 µM); in data set [3], 0.7 µg/mL (≈ 2.31 µM); in data set [4], 0.35 µg/mL (≈ 1.15 µM); in data set [5] it was 0.6 µg/mL (≈ 1.98 µM). The midpoint of cytotoxicity in data set [6], the CC50, lay at 16 µg/mL (≈ 52.7 µM).
`C=CCOc1cc(NC(=S)c2sccc2C)ccc1Cl` [Compound 76]: the EC50 in data set [1] is 0.035 µg/mL (≈ 0.108 µM); in data set [2], 2.7 µg/mL (≈ 8.34 µM); in data set [3] it was at least 1 µg/mL; in data set [4], 0.73 µg/mL (≈ 2.25 µM); in data set [5], over 1 µg/mL. This compound also came in with a CC50 in data set [6] of 5.3 µg/mL (≈ 16.4 µM).
For the compound `C=CCOc1cc(NC(=S)c2sccc2C)ccc1C#N` [Compound 77], the EC50 in data set [1] is 0.045 µg/mL (≈ 0.143 µM); in data set [2], at least 1 µg/mL; in data set [3] it was at least 1 µg/mL; in data set [4] it was 0.55 µg/mL (≈ 1.75 µM); in data set [5] it was over 1 µg/mL. In data set [6], the midpoint of cytotoxicity, the CC50, lay at 3.6 µg/mL (≈ 11.4 µM).
For `C=CCOc1cc(NC(=S)c2sccc2C)ccc1OC` [Compound 78], the EC50 is 0.045 µg/mL (≈ 0.141 µM) in data set [1]; 5 µg/mL (≈ 15.7 µM) in data set [2]; 2 µg/mL (≈ 6.26 µM) in data set [3]; 1.13 µg/mL (≈ 3.54 µM) in data set [4]; 3.3 µg/mL (≈ 10.3 µM) in data set [5]. Also, the CC50 in data set [6] is 7.1 µg/mL (≈ 22.2 µM).
As to `O=C(OC1CCCCC1)c1cc(NC(=S)c2ccsc2)ccc1Cl` [Compound 79], the half-maximal effective concentration (EC50) in data set [1] was 0.03 µg/mL (≈ 0.079 µM); in data set [2], 0.85 µg/mL (≈ 2.24 µM); in data set [3] it was 0.07 µg/mL (≈ 0.184 µM); in data set [4], 0.07 µg/mL (≈ 0.184 µM); in data set [5], 0.08 µg/mL (≈ 0.211 µM). The cytotoxic concentration (CC50) in data set [6] is 4.1 µg/mL (≈ 10.8 µM).
Take `O=C(OC1CCCCC1)c1cc(NC(=S)c2ccccc2Cl)ccc1Cl` [Compound 80]: the EC50 in data set [1] worked out at 0.5 µg/mL (≈ 1.22 µM); in data set [2] it was 4 µg/mL (≈ 9.8 µM); in data set [3], 5 µg/mL (≈ 12.2 µM); in data set [4] it was 4 µg/mL (≈ 9.8 µM); in data set [5], 3 µg/mL (≈ 7.35 µM). The 50% cytotoxic concentration (CC50) in data set [6] came to 8.3 µg/mL (≈ 20.3 µM).
As to `COc1ccccc1C(=S)Nc1ccc(Cl)c(C(=O)OC2CCCCC2)c1` [Compound 81], the concentration for a half-maximal effect (EC50) in data set [1] was found to be 0.04 µg/mL (≈ 0.099 µM); in data set [2], 0.7 µg/mL (≈ 1.73 µM); in data set [3], 0.65 µg/mL (≈ 1.61 µM); in data set [4], 0.6 µg/mL (≈ 1.49 µM); in data set [5], 4.5 µg/mL (≈ 11.1 µM). The same compound showed a CC50 in data set [6] of 12 µg/mL (≈ 29.7 µM).
On to `O=C(OC1CCCCC1)c1cc(NC(=S)c2ccccc2)ccc1Cl` [Compound 82], for which the EC50 was found to be 0.03 µg/mL (≈ 0.0802 µM) in data set [1]; 2 µg/mL (≈ 5.35 µM) in data set [2]; 1 µg/mL (≈ 2.67 µM) in data set [3]; 0.55 µg/mL (≈ 1.47 µM) in data set [4]; 0.8 µg/mL (≈ 2.14 µM) in data set [5]. Besides, the CC50 in data set [6] worked out at 5.2 µg/mL (≈ 13.9 µM).
On to `Cc1occc1C(=S)Nc1ccc(Cl)c(C(=O)OC2CCCCC2)c1` [Compound 83], for which the EC50 is 0.004 µg/mL (≈ 0.0106 µM) in data set [1]; 0.17 µg/mL (≈ 0.45 µM) in data set [2]; 0.057 µg/mL (≈ 0.151 µM) in data set [3]; 0.035 µg/mL (≈ 0.0926 µM) in data set [4]; 0.07 µg/mL (≈ 0.185 µM) in data set [5]. Also, it took 9.7 µg/mL (≈ 25.7 µM) to reach half-maximal cytotoxicity in data set [6] (CC50).
In the case of `CC(C)OC(=O)c1cc(NC(=S)c2ccccc2N)ccc1Cl` [Compound 85], the EC50 was determined as 0.5 µg/mL (≈ 1.43 µM) in data set [1]; 6 µg/mL (≈ 17.2 µM) in data set [2]; 7.5 µg/mL (≈ 21.5 µM) in data set [3]; 5.5 µg/mL (≈ 15.8 µM) in data set [4]; 5.3 µg/mL (≈ 15.2 µM) in data set [5]. Also, the midpoint of cytotoxicity in data set [6], the CC50, lay at 6.7 µg/mL (≈ 19.2 µM).
On to `CC(C)OC(=O)c1cc(NC(=S)c2ccco2)ccc1Cl` [Compound 86], for which the EC50 is 0.1 µg/mL (≈ 0.309 µM) in data set [1]; 5 µg/mL (≈ 15.4 µM) in data set [2]; 5 µg/mL (≈ 15.4 µM) in data set [3]; 4 µg/mL (≈ 12.4 µM) in data set [4]; 5 µg/mL (≈ 15.4 µM) in data set [5]. This compound showed a CC50 in data set [6] of 7.4 µg/mL (≈ 22.9 µM).
As to `Cc1ccoc1C(=S)Nc1ccc(Cl)c(C(=O)OC(C)C)c1` [Compound 87], the concentration giving a half-maximal response (EC50) in data set [1] was 0.02 µg/mL (≈ 0.0592 µM); in data set [2], 3 µg/mL (≈ 8.88 µM); in data set [3], 1 µg/mL (≈ 2.96 µM); in data set [4] it was 0.55 µg/mL (≈ 1.63 µM); in data set [5], 0.53 µg/mL (≈ 1.57 µM). For the same compound, the 50% cytotoxic concentration (CC50) in data set [6] stood at 15 µg/mL (≈ 44.4 µM).

The term EC50 denotes the concentration at which the effect is half-maximal. Broadly, the CC50 is the concentration giving 50% cytotoxicity. Lower therefore signals harm at low concentration.
